Reference: PubChem BioAssay AID1919017 (Molecular Pharmacology Branch, DTP, NCI, 2023)

Test system: SW1271 complex spheroids with HUVEC/MSC, growth, % test/control
Experiment: Anticancer human tumor SW1271 cell line growth inhibition [AhR];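 further: spheroids exposed to agents for 7 days before readout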
Settings: for IC50: curve of first compound; for viability, T/C: stronger effect = lower value
How it was run: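 Spheroids combined tumor cells with HUVEC endothelial cells and human MSCs as stroma. AhR antagonists were paired with standard or investigational drugs, each dosed in half-log steps down from near clinical Cmax, or from 10 microM where Cmax was unknown.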

[1] = second compound 0.1 µM, first compound 0.0316 µM
[2] = second compound 0.1 µM, first compound 0.1 µM
[3] = second compound 0.1 µM, first compound 0.316 µM
[4] = second compound 0.1 µM, first compound 1 µM
[5] = second compound 0.1 µM, first compound 3.16 µM
[6] = second compound 0.1 µM, first compound 10 µM
[7] = second compound 0.316 µM, first compound 0.0316 µM
[8] = second compound 0.316 µM, first compound 0.1 µM
[9] = second compound 0.316 µM, first compound 0.316 µM
[10] = second compound 0.316 µM, first compound 1 µM
[11] = second compound 0.316 µM, first compound 3.16 µM
[12] = second compound 0.316 µM, first compound 10 µM
[13] = second compound 1 µM, first compound 0.0316 µM
[14] = second compound 1 µM, first compound 0.1 µM
[15] = second compound 1 µM, first compound 0.316 µM
[16] = second compound 1 µM, first compound 1 µM
[17] = second compound 1 µM, first compound 3.16 µM
[18] = second compound 1 µM, first compound 10 µM
[19] = second compound 3.16 µM, first compound 0.0316 µM
[20] = second compound 3.16 µM, first compound 0.1 µM
[21] = second compound 3.16 µM, first compound 0.316 µM
[22] = second compound 3.16 µM, first compound 1 µM
[23] = second compound 3.16 µM, first compound 3.16 µM
[24] = second compound 3.16 µM, first compound 10 µM
[25] = second compound 10 µM, first compound 0.0316 µM
[26] = second compound 10 µM, first compound 0.1 µM
[27] = second compound 10 µM, first compound 0.316 µM
[28] = second compound 10 µM, first compound 1 µM
[29] = second compound 10 µM, first compound 3.16 µM
[30] = second compound 10 µM, first compound 10 µM

CC1COCCN1c1cc(C2(S(C)(=N)=O)CC2)nc(-c2ccnc3[nH]ccc23)n1 (stereo not given) + CC(CO)NC(=O)c1cc(-c2ccc(Cl)cc2)nn(-c2cnn(C)c2)c1=O was tested, and the IC50 (second compound 0.1 µM) was over 10000 nM, the IC50 (second compound 0.316 µM) was over 10000 nM and the IC50 (second compound 1 µM) was over 10000 nM. It also gave an IC50 (second compound 3.16 µM) of 8830 nM, an IC50 (second compound 10 µM) of over 10000 nM and a viability, T/C [1] of 114%. The viability, T/C [2] was 92.9%, the viability, T/C [3] was 77.6% and the viability, T/C [4] was 88.9%. For the same molecule, the viability, T/C [5] was 72.7%, the viability, T/C [6] was 59.9% and the viability, T/C [7] was 91.3%. It also gave a viability, T/C [8] of 96.7%, a viability, T/C [9] of 90.3% and a viability, T/C [10] of 73.2%. It also gave a viability, T/C [11] of 56.1%, a viability, T/C [12] of 50.9% and a viability, T/C [13] of 80.7%. The viability, T/C [14] was 100%, the viability, T/C [15] was 98.5% and the viability, T/C [16] was 77%. For the same molecule, the viability, T/C [17] was 68.3%, the viability, T/C [18] was 57.1% and the viability, T/C [19] was 98.3%. The viability, T/C [20] was 83.4%, the viability, T/C [21] was 86.4% and the viability, T/C [22] was 73.3%. For the same molecule, the viability, T/C [23] was 61.1%, the viability, T/C [24] was 48.5% and the viability, T/C [25] was 80%. For the same molecule, the viability, T/C [26] was 67.6%, the viability, T/C [27] was 72% and the viability, T/C [28] was 70.6%. It also gave a viability, T/C [29] of 69.2% and a viability, T/C [30] of 62.9%.
COc1ccc([C@@H](O)c2cc(-c3ncnc4cc(N5CCOCC5)ccc34)c(F)cc2Cl)nn1 + CC(CO)NC(=O)c1cc(-c2ccc(Cl)cc2)nn(-c2cnn(C)c2)c1=O was tested, and the IC50 (second compound 0.1 µM) was 2690 nM, the IC50 (second compound 0.316 µM) was 1900 nM and the IC50 (second compound 1 µM) was 1410 nM. The IC50 (second compound 3.16 µM) was 1480 nM, the IC50 (second compound 10 µM) was 931 nM and the viability, T/C [1] was 83.9%. The viability, T/C [2] was 96.4%, the viability, T/C [3] was 90.9% and the viability, T/C [4] was 66.5%. For the same molecule, the viability, T/C [5] was 49.6%, the viability, T/C [6] was 28% and the viability, T/C [7] was 101%. For the same molecule, the viability, T/C [8] was 91.4%, the viability, T/C [9] was 77.3% and the viability, T/C [10] was 58.6%. The viability, T/C [11] was 43.1%, the viability, T/C [12] was 33.2% and the viability, T/C [13] was 103%. It also gave a viability, T/C [14] of 108%, a viability, T/C [15] of 78.6% and a viability, T/C [16] of 55.8%. For the same molecule, the viability, T/C [17] was 40.6%, the viability, T/C [18] was 29.6% and the viability, T/C [19] was 92.2%. For the same molecule, the viability, T/C [20] was 80.4%, the viability, T/C [21] was 68.3% and the viability, T/C [22] was 56.3%. The viability, T/C [23] was 39.2%, the viability, T/C [24] was 36.5% and the viability, T/C [25] was 84%. It also gave a viability, T/C [26] of 76.9%, a viability, T/C [27] of 59.8% and a viability, T/C [28] of 50.3%. For the same molecule, the viability, T/C [29] was 38% and the viability, T/C [30] was 29.1%.
Work on O=C(C=Cn1cnc(-c2cc(C(F)(F)F)cc(C(F)(F)F)c2)n1)NNc1cnccn1 + CC(CO)NC(=O)c1cc(-c2ccc(Cl)cc2)nn(-c2cnn(C)c2)c1=O yielded an IC50 (second compound 0.1 µM) of 996 nM, an IC50 (second compound 0.316 µM) of 911 nM and an IC50 (second compound 1 µM) of 625 nM. It also gave an IC50 (second compound 3.16 µM) of 450 nM, an IC50 (second compound 10 µM) of 756 nM and a viability, T/C (second compound 0.1 µM, first compound 0.00949 µM) of 108%. The viability, T/C (second compound 0.1 µM, first compound 0.03 µM) was 76.7%, the viability, T/C (second compound 0.1 µM, first compound 0.0949 µM) was 93.1% and the viability, T/C (second compound 0.1 µM, first compound 0.3 µM) was 70.5%. It also gave a viability, T/C (second compound 0.1 µM, first compound 0.949 µM) of 45.6%, a viability, T/C (second compound 0.1 µM, first compound 3 µM) of 34.3% and a viability, T/C (second compound 0.316 µM, first compound 0.00949 µM) of 74.4%. For the same molecule, the viability, T/C (second compound 0.316 µM, first compound 0.03 µM) was 79.2%, the viability, T/C (second compound 0.316 µM, first compound 0.0949 µM) was 72.3% and the viability, T/C (second compound 0.316 µM, first compound 0.3 µM) was 63.7%. It also gave a viability, T/C (second compound 0.316 µM, first compound 0.949 µM) of 50%, a viability, T/C (second compound 0.316 µM, first compound 3 µM) of 31.7% and a viability, T/C (second compound 1 µM, first compound 0.00949 µM) of 73.9%. For the same molecule, the viability, T/C (second compound 1 µM, first compound 0.03 µM) was 86.7%, the viability, T/C (second compound 1 µM, first compound 0.0949 µM) was 70.8% and the viability, T/C (second compound 1 µM, first compound 0.3 µM) was 60.4%. The viability, T/C (second compound 1 µM, first compound 0.949 µM) was 44%, the viability, T/C (second compound 1 µM, first compound 3 µM) was 40.5% and the viability, T/C (second compound 3.16 µM, first compound 0.00949 µM) was 85.2%. The viability, T/C (second compound 3.16 µM, first compound 0.03 µM) was 75.3%, the viability, T/C (second compound 3.16 µM, first compound 0.0949 µM) was 87.3% and the viability, T/C (second compound 3.16 µM, first compound 0.3 µM) was 57.4%. It also gave a viability, T/C (second compound 3.16 µM, first compound 0.949 µM) of 34.8%, a viability, T/C (second compound 3.16 µM, first compound 3 µM) of 37.8% and a viability, T/C (second compound 10 µM, first compound 0.00949 µM) of 79%. It also gave a viability, T/C (second compound 10 µM, first compound 0.03 µM) of 71.7%, a viability, T/C (second compound 10 µM, first compound 0.0949 µM) of 68.8% and a viability, T/C (second compound 10 µM, first compound 0.3 µM) of 92.2%. For the same molecule, the viability, T/C (second compound 10 µM, first compound 0.949 µM) was 43.2% and the viability, T/C (second compound 10 µM, first compound 3 µM) was 27%.
